The values below are quoted from earlier work in US8951557B2, “Sustained release solid formulations and methods of manufacturing the same” (Hana Pharm. Co. Ltd., priority 2008, dated 2015).

The conditions of data set [1]: 5 mg rapid release tablet administered.
The conditions of data set [2]: administered orally, compared to direct administration into bloodstream.

The structures appear in SMILES notation.

With `COc1ccc2c3c1O[C@H]1C(=O)CC[C@@]4(O)[C@@H](C2)N(C)CC[C@]314.Cl` [Oxycodone hydrochloride], the “time the analgesic effect sustains” value in data set [1] was 4 to 6 h. In data set [2], the bioavailability is on record as 60-87%.
